Data reported in patent US9169243B2, “Apoptosis signal-regulating kinase inhibitors” (Gilead Sciences, Inc., priority 2013, dated 2015).

Biological target: recombinant human ASK1 kinase (Homo sapiens (Human), UniProt Q99683)
Experiment: TR-FRET ASK1 (Apoptosis Signal-Regulating Kinase 1) kinase assay
Assay type: biochemical
Details: TR-FRET/HTRF, 4 nM ASK1, 1 μM STK3 peptide substrate, 100 μM ATP, 3 hr; average of quadruplicate determination
Text: I. TR-FRET ASK1 (Apoptosis Signal-Regulating Kinase 1) Kinase Assay
To evaluate the inhibitory activity of compounds of the invention against ASK1 (Apoptosis Signal-regulating Kinase 1) kinase, its activity was examined using a TR-FRET ASK1 kinase assay which determined the amount of phosphate transferred to a peptide substrate from ATP.
Dephosphorylated recombinant human ASK1 kinase was from Gilead Sciences. Small molecule kinase inhibitor staurosporine (Catalogue #S6942) and dithiothreitol (DTT, catalogue #43815-5G) were obtained from Sigma Chemicals (St. Louis, Mo.). ATP (catalogue #7724) was from Affymetrix (Santa Clara, Calif.) and test compounds were from Gilead Sciences. HTRF KinEASE™-STK S3 kit was obtained from Cisbio (Bedford, Mass.). All other reagents were of the highest grade commercially available.
The assay measures the phosphorylation level of a biotinylated peptide substrate by the ASK1 kinase using HTRF detection. This is a competitive, time-resolved fluorescence resonance energy transfer (TR-FRET) immunoassay, based on HTRF® KinEASE™-STK manual from Cisbio. Test compound, 1 μM STK3 peptide substrate, 4 nM of ASK1 kinase were incubated with 10 mM MOP buffer, pH. 7.0 containing 10 mM Mg-acetate, 0.025% NP-40, 1 mM DTT, 0.05% BSA and 1.5% glycerol for 30 minutes then 100 μM ATP was added to start the kinase reaction and incubated for 3 hr. Peptide antibody labeled with 1×Eu^3+ Cryptate buffer containing 10 mM EDTA and 125 nM Streptavidin XL665 were added to stop the reaction and phosphorylated peptide substrate was detected using Envision 2103 Multilabeled reader from PerkinElmer. The fluorescence was measured at 615 nm (Cryptate) and 665 nm (XL665) and a ratio of 665 nm/615 nm was calculated for each well. The resulting TR-FRET level (a ratio of 665 nm/615 nm) was proportional to the phosphorylation level. Under these assay conditions, the degree of phosphorylation of peptide substrate was linear with time and concentration for the enzyme. The assay system yielded consistent results with regard to Km and specific activities for the enzyme. For inhibition experiments (IC50 values), activities were performed with constant concentrations of ATP, peptide and several fixed concentrations of inhibitors. Staurosporine, the nonselective kinase inhibitor, was used as the positive control. All enzyme activity data are reported as an average of quadruplicate determination.
The IC50 values were calculated following equation: y=Range/{1+(x/IC50)^s}+Background where x and y represent the concentration of inhibitors and enzyme activity, respectively. Enzyme activity is expressed as the amount of Phosphate incorporated into substrate peptide from ATP. Range is the maximum y range (no inhibitor, DMSO control) and s is a slope factor.

Chain of recombinant human ASK1 kinase (Q99683 whole entry): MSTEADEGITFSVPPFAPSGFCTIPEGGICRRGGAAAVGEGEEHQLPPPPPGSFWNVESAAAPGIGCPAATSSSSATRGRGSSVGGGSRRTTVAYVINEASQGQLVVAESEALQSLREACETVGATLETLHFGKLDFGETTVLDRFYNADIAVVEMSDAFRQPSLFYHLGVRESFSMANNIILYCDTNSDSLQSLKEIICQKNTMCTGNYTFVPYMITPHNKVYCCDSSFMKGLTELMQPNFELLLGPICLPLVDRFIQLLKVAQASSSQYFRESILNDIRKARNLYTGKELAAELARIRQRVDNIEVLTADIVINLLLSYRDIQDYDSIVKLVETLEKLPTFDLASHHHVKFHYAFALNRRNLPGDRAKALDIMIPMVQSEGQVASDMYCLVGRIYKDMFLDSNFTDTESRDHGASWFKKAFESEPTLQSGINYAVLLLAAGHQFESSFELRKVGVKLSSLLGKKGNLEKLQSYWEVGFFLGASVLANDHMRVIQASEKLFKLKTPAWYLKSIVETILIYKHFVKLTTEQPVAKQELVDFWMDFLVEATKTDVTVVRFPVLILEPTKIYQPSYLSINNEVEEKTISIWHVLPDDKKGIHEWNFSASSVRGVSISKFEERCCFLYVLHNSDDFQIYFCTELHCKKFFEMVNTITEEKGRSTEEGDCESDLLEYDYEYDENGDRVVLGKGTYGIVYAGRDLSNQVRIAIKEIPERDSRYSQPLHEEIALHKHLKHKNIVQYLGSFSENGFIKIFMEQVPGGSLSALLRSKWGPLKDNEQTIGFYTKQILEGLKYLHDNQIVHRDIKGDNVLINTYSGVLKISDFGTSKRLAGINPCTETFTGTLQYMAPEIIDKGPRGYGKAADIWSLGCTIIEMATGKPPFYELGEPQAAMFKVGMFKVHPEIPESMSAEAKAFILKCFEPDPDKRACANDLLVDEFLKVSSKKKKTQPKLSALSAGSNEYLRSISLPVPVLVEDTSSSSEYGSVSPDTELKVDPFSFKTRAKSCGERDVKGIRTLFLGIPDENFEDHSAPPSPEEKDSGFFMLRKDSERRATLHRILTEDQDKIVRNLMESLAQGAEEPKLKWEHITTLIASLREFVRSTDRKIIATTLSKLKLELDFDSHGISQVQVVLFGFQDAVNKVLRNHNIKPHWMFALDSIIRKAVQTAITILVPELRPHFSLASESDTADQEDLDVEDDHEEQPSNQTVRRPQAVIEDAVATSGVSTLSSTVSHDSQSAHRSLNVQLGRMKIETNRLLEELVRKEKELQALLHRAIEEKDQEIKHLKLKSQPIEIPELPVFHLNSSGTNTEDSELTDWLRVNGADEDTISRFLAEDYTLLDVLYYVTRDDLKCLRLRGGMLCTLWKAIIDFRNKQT

Row | SMILES | IC50
1 | C[C@H](n1cnnc1-c1nc(NC(=O)c2cc(-n3cnc(C4CC4)c3)c(N3CC4CN(C)CC4C3)cn2)cs1)C(F)(F)F (stereo partly drawn) [Compound 38, 4-(4-cyclopropyl-1H-imidazol-1-yl)-5-(5-methylhexahydropyrrolo[3,4-c]pyrrol-2(1H)-yl)-N-(2-(4-((S)-1,1,1-trifluoropropan-2-yl)-4H-1,2,4-triazol-3-yl)thiazol-4-yl)picolinamide] | 2.4 nM
2 | C[C@H](n1cnnc1-c1nc(NC(=O)c2cc(-n3cnc(C4CC4)c3)c(N3CCN4C(=O)OCC4C3)cn2)cs1)C(F)(F)F (stereo partly drawn) [Compound 39, 4-(4-cyclopropyl-1H-imidazol-1-yl)-5-(3-oxotetrahydro-1H-oxazolo[3,4-a]pyrazin-7(3H)-yl)-N-(2-(4-((S)-1,1,1-trifluoropropan-2-yl)-4H-1,2,4-triazol-3-yl)thiazol-4-yl)picolinamide] | 2.3 nM
3 | C[C@H](n1cnnc1-c1nc(NC(=O)c2cc(-n3cnc(C4CC4)c3)c(N3CC4CC4C3)cn2)cs1)C(F)(F)F (stereo partly drawn) [Compound 40, 5-(3-azabicyclo[3.1.0]hexan-3-yl)-4-(4-cyclopropyl-1H-imidazol-1-yl)-N-(2-(4-((S)-1,1,1-trifluoropropan-2-yl)-4H-1,2,4-triazol-3-yl)thiazol-4-yl)picolinamide] | 2.2 nM
4 | C[C@H](n1cnnc1-c1nc(NC(=O)c2cc(-n3cnc(C4CC4)c3)c(N3CCC4(CC3)COC4)cn2)cs1)C(F)(F)F [Compound 44, (S)-4-(4-cyclopropyl-1H-imidazol-1-yl)-5-(2-oxa-7-azaspiro[3.5]nonan-7-yl)-N-(2-(4-(1,1,1-trifluoropropan-2-yl)-4H-1,2,4-triazol-3-yl)thiazol-4-yl)picolinamide] | 2.1 nM
5 | C[C@H](n1cnnc1-c1nc(NC(=O)c2cc(-n3cnc(C4CC4)c3)c(N3CC4(CCOCC4)C3)cn2)cs1)C(F)(F)F [Compound 45, (S)-4-(4-cyclopropyl-1H-imidazol-1-yl)-5-(7-oxa-2-azaspiro[3.5]nonan-2-yl)-N-(2-(4-(1,1,1-trifluoropropan-2-yl)-4H-1,2,4-triazol-3-yl)thiazol-4-yl)picolinamide] | 2.6 nM

Now those with a lower IC50, led by results:

Row | IC50 | SMILES
6 | 1.8 nM | C[C@H](n1cnnc1-c1nc(NC(=O)c2cc(-n3cnc(C4CC4)c3)c(N3CCN4CCCC4C3)cn2)cs1)C(F)(F)F (stereo partly drawn) [Compound 37, 4-(4-cyclopropyl-1H-imidazol-1-yl)-5-(hexahydropyrrolo[1,2-a]pyrazin-2(1H)-yl)-N-(2-(4-((S)-1,1,1-trifluoropropan-2-yl)-4H-1,2,4-triazol-3-yl)thiazol-4-yl)picolinamide]
7 | 1.9 nM | C[C@H](n1cnnc1-c1nc(NC(=O)c2cc(-n3cnc(C4CC4)c3)c(N3CC(N4CCOCC4)C3)cn2)cs1)C(F)(F)F [Compound 41, (S)-4-(4-cyclopropyl-1H-imidazol-1-yl)-5-(3-morpholinoazetidin-1-yl)-N-(2-(4-(1,1,1-trifluoropropan-2-yl)-4H-1,2,4-triazol-3-yl)thiazol-4-yl)picolinamide]
8 | 1.8 nM | C[C@H](n1cnnc1-c1nc(NC(=O)c2cc(-n3cnc(C4CC4)c3)c(N3CCN(C4CC4)CC3)cn2)cs1)C(F)(F)F [Compound 42, (S)-4-(4-cyclopropyl-1H-imidazol-1-yl)-5-(4-cyclopropylpiperazin-1-yl)-N-(2-(4-(1,1,1-trifluoropropan-2-yl)-4H-1,2,4-triazol-3-yl)thiazol-4-yl)picolinamide]
9 | 1.8 nM | C[C@H](n1cnnc1-c1nc(NC(=O)c2cc(-n3cnc(C4CC4)c3)c(N3CCN(CC4CC4)CC3)cn2)cs1)C(F)(F)F [Compound 43, (S)-4-(4-cyclopropyl-1H-imidazol-1-yl)-5-(4-(cyclopropylmethyl)piperazin-1-yl)-N-(2-(4-(1,1,1-trifluoropropan-2-yl)-4H-1,2,4-triazol-3-yl)thiazol-4-yl)picolinamide]
